What was measured:
Experiment in all cases: relative viability (nuclei count vs DMSO), 5 days (fraction); higher = more cells survive
NCI-H2228 = system: NCI-H2228
Procedure, shortened: (§1)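 Cells from lung cancer lines were seeded into 1536-well plates and, one day later, dosed by pin tool. Treatments were either a single drug or a fixed dose of an anchor drug with five library-drug doses (not always all listed) in √10 steps. After 5 days, nuclei were stained in a one-step fixation (final 0.05% Triton X-100, 1% formaldehyde, 1 ug/ml Hoechst) and counted on 4× images, and relative viability is the treated-to-vehicle nuclei ratio, as the median of duplicate plates.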

NCI-H2126 = system: NCI-H2126
Procedure, shortened: as §1

HCC-366 = system: HCC-366
Procedure, shortened: as §1

NCI-H1993 = system: NCI-H1993
Procedure, shortened: as §1

EMC-BAC-2 = system: EMC-BAC-2
Procedure, shortened: as §1

COR-L23 = system: COR-L23
Procedure, shortened: as §1

NCI-H1395 = system: NCI-H1395
Procedure, shortened: as §1

HCC-15 = system: HCC-15
Procedure, shortened: as §1

LC-2-ad = system: LC-2-ad
Procedure, shortened: as §1

SK-LU-1 = system: SK-LU-1
Procedure, shortened: as §1

HOP-62 = system: HOP-62
Procedure, shortened: as §1

NCI-H2023 = system: NCI-H2023
Procedure, shortened: as §1

NCI-H2405 = system: NCI-H2405
Procedure, shortened: as §1

NCI-H1944 = system: NCI-H1944
Procedure, shortened: as §1

HARA = system: HARA
Procedure, shortened: as §1

NCI-H358 = system: NCI-H358
Procedure, shortened: as §1

NCI-H1793 = system: NCI-H1793
Procedure, shortened: as §1

HCC-78 = system: HCC-78
Procedure, shortened: as §1

NCI-H838 = system: NCI-H838
Procedure, shortened: as §1

ChaGo-K-1 = system: ChaGo-K-1
Procedure, shortened: as §1

ABC-1 = system: ABC-1
Procedure, shortened: as §1

NCI-H23 = system: NCI-H23
Procedure, shortened: as §1

In the case of `O=c1cc(N2CCOCC2)oc2c(-c3cccc4c3sc3ccccc34)cccc12` + N=C(N)NC(=N)NCCc1ccccc1 [Phenformin] (partner 250 µM), the relative viability (NCI-H2228; first compound 0.01 µM) is reported as 0.372, the relative viability (NCI-H2228; first compound 0.03162 µM) is reported as 0.391 and the relative viability (NCI-H2228; first compound 0.1 µM) is reported as 0.262. The relative viability (NCI-H2228; first compound 0.3162 µM) was 0.259, the relative viability (NCI-H2228; first compound 1 µM) was 0.37 and the relative viability (NCI-H2126; first compound 0.01 µM) was 0.513. For the same molecule, the relative viability (NCI-H2126; first compound 0.03162 µM) was 0.547, the relative viability (NCI-H2126; first compound 0.1 µM) was 0.53 and the relative viability (NCI-H2126; first compound 0.3162 µM) was 0.554. For the same molecule, the relative viability (NCI-H2126; first compound 1 µM) was 0.515, the relative viability (HCC-366; first compound 0.01 µM) was 0.608 and the relative viability (HCC-366; first compound 0.03162 µM) was 0.697. The relative viability (HCC-366; first compound 0.1 µM) was 0.661, the relative viability (HCC-366; first compound 0.3162 µM) was 0.601 and the relative viability (HCC-366; first compound 1 µM) was 0.668. For the same molecule, the relative viability (NCI-H1993; first compound 0.01 µM) was 0.61, the relative viability (NCI-H1993; first compound 0.03162 µM) was 0.508 and the relative viability (NCI-H1993; first compound 0.1 µM) was 0.506. The relative viability (NCI-H1993; first compound 0.3162 µM) was 0.483, the relative viability (NCI-H1993; first compound 1 µM) was 0.556 and the relative viability (EMC-BAC-2; first compound 0.01 µM) was 0.423. For the same molecule, the relative viability (EMC-BAC-2; first compound 0.03162 µM) was 0.57, the relative viability (EMC-BAC-2; first compound 0.1 µM) was 0.55 and the relative viability (EMC-BAC-2; first compound 0.3162 µM) was 0.556. The relative viability (EMC-BAC-2; first compound 1 µM) was 0.564, the relative viability (COR-L23; first compound 0.01 µM) was 0.439 and the relative viability (COR-L23; first compound 0.03162 µM) was 0.466. The relative viability (COR-L23; first compound 0.1 µM) was 0.43, the relative viability (COR-L23; first compound 0.3162 µM) was 0.411 and the relative viability (COR-L23; first compound 1 µM) was 0.449. The relative viability (NCI-H1395; first compound 0.01 µM) was 0.435, the relative viability (NCI-H1395; first compound 0.03162 µM) was 0.45 and the relative viability (NCI-H1395; first compound 0.1 µM) was 0.417. For the same molecule, the relative viability (NCI-H1395; first compound 0.3162 µM) was 0.461, the relative viability (NCI-H1395; first compound 1 µM) was 0.447 and the relative viability (HCC-15; first compound 0.01 µM) was 0.47. The relative viability (HCC-15; first compound 0.03162 µM) was 0.481, the relative viability (HCC-15; first compound 0.1 µM) was 0.596 and the relative viability (HCC-15; first compound 0.3162 µM) was 0.481. It also gave a relative viability (HCC-15; first compound 1 µM) of 0.498, a relative viability (LC-2-ad; first compound 0.01 µM) of 0.624 and a relative viability (LC-2-ad; first compound 0.03162 µM) of 0.592. It also gave a relative viability (LC-2-ad; first compound 0.1 µM) of 0.614, a relative viability (LC-2-ad; first compound 0.3162 µM) of 0.547 and a relative viability (LC-2-ad; first compound 1 µM) of 0.534. For the same molecule, the relative viability (SK-LU-1; first compound 0.01 µM) was 0.573, the relative viability (SK-LU-1; first compound 0.03162 µM) was 0.551 and the relative viability (SK-LU-1; first compound 0.1 µM) was 0.531. The relative viability (SK-LU-1; first compound 0.3162 µM) was 0.509, the relative viability (SK-LU-1; first compound 1 µM) was 0.45 and the relative viability (HOP-62; first compound 0.01 µM) was 0.555. For the same molecule, the relative viability (HOP-62; first compound 0.03162 µM) was 0.735, the relative viability (HOP-62; first compound 0.1 µM) was 0.671 and the relative viability (HOP-62; first compound 0.3162 µM) was 0.575. For the same molecule, the relative viability (HOP-62; first compound 1 µM) was 0.704, the relative viability (NCI-H2023; first compound 0.01 µM) was 0.424 and the relative viability (NCI-H2023; first compound 0.03162 µM) was 0.397. For the same molecule, the relative viability (NCI-H2023; first compound 0.1 µM) was 0.482, the relative viability (NCI-H2023; first compound 0.3162 µM) was 0.425 and the relative viability (NCI-H2023; first compound 1 µM) was 0.385. It also gave a relative viability (NCI-H2405; first compound 0.01 µM) of 0.364, a relative viability (NCI-H2405; first compound 0.03162 µM) of 0.38 and a relative viability (NCI-H2405; first compound 0.1 µM) of 0.356. For the same molecule, the relative viability (NCI-H2405; first compound 0.3162 µM) was 0.424, the relative viability (NCI-H2405; first compound 1 µM) was 0.404 and the relative viability (NCI-H1944; first compound 0.01 µM) was 0.212. For the same molecule, the relative viability (NCI-H1944; first compound 0.03162 µM) was 0.208, the relative viability (NCI-H1944; first compound 0.1 µM) was 0.213 and the relative viability (NCI-H1944; first compound 0.3162 µM) was 0.207. For the same molecule, the relative viability (NCI-H1944; first compound 1 µM) was 0.237, the relative viability (HARA; first compound 0.01 µM) was 0.414 and the relative viability (HARA; first compound 0.03162 µM) was 0.472. It also gave a relative viability (HARA; first compound 0.1 µM) of 0.416, a relative viability (HARA; first compound 0.3162 µM) of 0.502 and a relative viability (HARA; first compound 1 µM) of 0.482. The relative viability (NCI-H358; first compound 0.01 µM) was 0.339, the relative viability (NCI-H358; first compound 0.03162 µM) was 0.35 and the relative viability (NCI-H358; first compound 0.1 µM) was 0.351. The relative viability (NCI-H358; first compound 0.3162 µM) was 0.325, the relative viability (NCI-H358; first compound 1 µM) was 0.322 and the relative viability (NCI-H1793; first compound 0.01 µM) was 0.386. It also gave a relative viability (NCI-H1793; first compound 0.1 µM) of 0.345, a relative viability (NCI-H1793; first compound 0.3162 µM) of 0.375 and a relative viability (NCI-H1793; first compound 1 µM) of 0.363. For the same molecule, the relative viability (HCC-78; first compound 0.01 µM) was 0.738, the relative viability (HCC-78; first compound 0.03162 µM) was 0.652 and the relative viability (HCC-78; first compound 0.1 µM) was 0.388. It also gave a relative viability (HCC-78; first compound 0.3162 µM) of 0.622, a relative viability (HCC-78; first compound 1 µM) of 0.627 and a relative viability (NCI-H838; first compound 0.01 µM) of 0.473. It also gave a relative viability (NCI-H838; first compound 0.03162 µM) of 0.547, a relative viability (NCI-H838; first compound 0.1 µM) of 0.534 and a relative viability (NCI-H838; first compound 0.3162 µM) of 0.6. It also gave a relative viability (NCI-H838; first compound 1 µM) of 0.543, a relative viability (ChaGo-K-1; first compound 0.01 µM) of 0.401 and a relative viability (ChaGo-K-1; first compound 0.03162 µM) of 0.579. For the same molecule, the relative viability (ChaGo-K-1; first compound 0.1 µM) was 0.386, the relative viability (ChaGo-K-1; first compound 0.3162 µM) was 0.547 and the relative viability (ChaGo-K-1; first compound 1 µM) was 0.468. For the same molecule, the relative viability (ABC-1; first compound 0.01 µM) was 0.228, the relative viability (ABC-1; first compound 0.03162 µM) was 0.258 and the relative viability (ABC-1; first compound 0.1 µM) was 0.225. It also gave a relative viability (ABC-1; first compound 0.3162 µM) of 0.28, a relative viability (ABC-1; first compound 1 µM) of 0.266 and a relative viability (NCI-H23; first compound 0.01 µM) of 0.83. For the same molecule, the relative viability (NCI-H23; first compound 0.03162 µM) was 0.801, the relative viability (NCI-H23; first compound 0.3162 µM) was 0.792 and the relative viability (NCI-H23; first compound 1 µM) was 0.806.

From the supplement of paper PMC10307832
